{"source": "patent US10653674B2", "about": "“Multisubstituted aromatic compounds as inhibitors of thrombin” (VERSEON CORPORATION, priority 2010, dated 2020)", "key": {"Human thrombin": {"biological_target": "T1, Human thrombin (Homo sapiens, UniProt P00734)", "T1 construct": "purchased Haematologic Technologies Inc", "test": "Thrombin protease inhibition assay, chromogenic substrate S-2238", "assay_type": "biochemical", "settings": "inhibition of the protease activity of thrombin, Table A", "procedure": "Compounds described herein can be assayed, by a variety of methods known in the art and described herein, for inhibition of biological activity, e.g., protease activity, of a variety of proteins, e.g., thrombin.\nThe thrombin activity reported herein (e.g., Table A) was obtained as follows. […] Thrombin was assayed in buffer containing 0.05 M Tris (pH 7.4), 0.015 M NaCl and 0.01% PEG-8000. The final concentration of enzyme used was 3 nM thrombin. […] All assays were performed in 96-well microtiter plates at room temperature (RT). […] Inhibitor IC50 values were determined by adding test compound as ten point, three-fold serial dilutions in buffer solution, as known in the art. The plate was read at 10 minutes after substrate addition. The IC50 was calculated by plotting the percent (%) inhibition against compound concentration and fitting the data to a constrained four parameter sigmoidal curve, as known in the art."}, "malignant breast tumors": {"test_system": "malignant breast tumors", "settings": "cited from earlier work"}}}
{"smiles": "Fc1ccc(CNc2nc(-c3cccnc3)n[nH]2)cc1", "note": "[Cmpd 4]", "values": [{"measurement": "melting point", "result": "185 to 186", "unit": "°C"}]}
{"smiles": "CN(C)C(=O)c1n[nH]c(C(=O)Nc2ccccc2Cl)n1", "note": "[Cmpd 186, 5-C-(2-chlorobenzene)-3-N,3-N-dimethyl-1H-1,2,4-triazole-3,5-dicarboxamide]", "values": [{"measurement": "IC50", "setting": "Human thrombin", "result": "> 1", "unit": "µM"}]}
{"smiles": "CNC(=O)c1n[nH]c(C(=O)Nc2ccccc2Cl)n1", "note": "[Cmpd 187, 5-C-(2-chlorobenzene)-3-N-methyl-1H-1,2,4-triazole-3,5-dicarboxamide]", "values": [{"measurement": "IC50", "setting": "Human thrombin", "result": "> 1", "unit": "µM"}]}
{"smiles": "CCCCCCOC(=O)NC(=N)c1ccc(NCc2nc3cc(C(=O)N(CCC(=O)OCC)c4ccccn4)ccc3n2C)cc1", "note": "[dabigatran etexilate]", "values": [{"measurement": "reduction in tumor volume", "setting": "malignant breast tumors; at 4 weeks, treated mice", "result": 50, "unit": "%"}, {"measurement": "weight loss in treated mice", "setting": "malignant breast tumors; at 4 weeks", "result": "no weight loss"}, {"measurement": "reduction of tumor cells in the blood and liver micrometastases", "setting": "malignant breast tumors; mouse, in vivo", "result": "50-60%"}]}
